This is an account of results in US10343997B1, “Ursolic acid derivatives” (KING SAUD UNIVERSITY, priority 2018, dated 2019).

For one assay, the system named is pithed rat. Put plainly: In vivo evaluation of calcium blockade in the pithed rat (cardio accelerator response). How it is done:
Calcium blockers in the pithed rat were calculated in vivo.
Male Sprague-Dawley rats (250-350 g) were anaesthetized with methohexitone sodium (50 mg/kg, intraperitoneal injection). Following cannulation of the trachea, the rats were pithed through one orbit with a stainless steel rod and immediately artificially respired with room air (78 strokes/min, 1 mil/100 g body weight) via a Palmer small animal respiration pump. A jugular vein was cannulated for administration of drugs. Arterial blood pressure was recorded from a carotid artery using a pressure transducer.
Heart rate was derived from the phasic arterial pressure signal with a phase lock loop ratemeter (BRL Instrument Services). […] The animals were kept warm by an incandescent lamp positioned about 25 cm above them. The pithing rod was withdrawn until the tip reached the thoracic portion of the spinal cord. All rats then received (+)tubocurarine (1.5 mg/kg, intravenously) and were bilaterally vagotomized.
The cardio accelerator response was obtained by continuous electrical stimulation of the thoracic spinal cord with square wave pulses of 0.5 ms duration, at supramaximal voltage at a frequency of 0.5 Hz using the pithing rod as a stimulating electrode. An indifferent electrode was inserted subcutaneously in the femoral region. Only rats with a resulting tachycardia of more than 100 beats/min were included in the experiments. When the cardio accelerator response was stabilized for about 3-5 min, cumulative intravenous doses of test drug or corresponding vehicle were administered. Successive doses were given when the response to the previous dose stabilized.
Doses of β-blockers or calcium-antagonists, which reduce the tachycardia to 50%, were tested again. Three minutes after administration of the drug, calcium gluconate (1 mg/min) or water (0.1 ml/min) was infused using a Harvard apparatus compact infusion pump.
The level of tachycardia immediately prior to drug administration was taken as 100% and responses to drugs were calculated as a percentage of the predose tachycardia. […] Significance of differences between the groups receiving calcium gluconate and their parallel vehicle controls were calculated by a Student's t-test.

The test system of the next assay is cardiac function. Particulars: background statement; cited from earlier work.
Assay [1] has as its system guinea-pig isolated ileum. Put plainly: Relaxation of electrically induced contraction of guinea-pig isolated ileum. The format is cell-based. Particulars: Cavia porcellus, stimulation 25V, 0.1 Hz, 5 ms, means ± s.e., n = 6, read-out: pIC50 (−log IC50) for relaxation of electrically induced contraction (converted). How it is done:
(§1) Male guinea-pigs, weighing between 200-400 g, were killed by a blow on the head after previously being deprived of food for 18 h but having had free access to water. The non-terminal part of the ileum was removed and cut into 20-mm long segments, which were suspended in an organ bath and connected to an isotonic transducer. The organ bath contained 50 mL physiological solution oxygenated with 95% O2 and 5% […] at 37° C. The physiological solution was typically normal saline with 0.9% sodium chloride. The fluid of the organ bath was changed every 15 min. The ileal segments were subjected to a resting tension of 0.5-1 g and left to equilibrate for 60 min.
Each segment was treated with only one compound. The pIC50 (−log IC50) value of each compound was calculated from concentration-response curves.

Another assay deals with rat isolated aorta. Kind of assay: Relaxation of potassium-induced contraction of rat isolated aorta. The format is cell-based. Particulars: rat isolated aorta pre-contracted with 40 mM KCl; means ± s.e., n = 6; read-out: pIC50 (−log IC50) for relaxation of potassium-induced contraction (converted). How it is done: Six white male rats were killed by a blow on the head and decapitation. The thoracic aorta of each rat was isolated, carefully dissected from the surrounding tissues, and cut into 5 segments, 3 mm in length. The segments were joined together, suspended in Krebs solution (composition in mmol: NaCl 118, KCl 4.8, CaCl2, 2.5, KH2PO4 1.2, MgSO4 1.2, NaHCO3 25 and glucose 10) at 37° C. and oxygenated with 95% O2 and 5% CO2. The fluid of the organ bath was changed every 15 min. The tissue was subject to a resting tension of 1 g and left to equilibrate for 1 h. The contractions of isolated aortic rings were recorded by means of a force transducer and Beckman physiograph. […] The pre-contracted tissue was then subject to increasing amounts of one of the calcium channel blockers added to the organ bath. The pIC50 value of each compound was calculated from concentration-response curves.

The test system of the next assay is guinea-pig ileum. Kind of assay: Calcium-induced contraction in K+-depolarized guinea-pig ileum. The format is cell-based. Particulars: 2×10^−9 M of compound; for Emax at 0.002 µM: Cavia porcellus, contraction induced by 3 mM calcium, 84.44% without antagonist, read-out: calcium-induced contractions, % of the maximum response. How it is done: as §1
As a control, increasing concentrations of CaCl2 (0.1, 0.3, 1, 3, 10 mmol) were added to an organ bath and the contractile response of the ileum was recorded. Tissues were then preincubated for 15-20 min with one concentration of each calcium channel blocker and increasing concentrations of CaCl2 were again added to the bathing media.
Response percentage ratios were calculated by dividing the percent of maximum responses induced by 3 mM calcium in the presence of each calcium-channel blocker at a concentration of 2×10^−9 M by the percent of maximum response induced by 3 mM calcium in the absence of any calcium-channel blocker.

For assay [2], the target named is voltage-dependent calcium channel. Kind of assay: In vitro 3H-nitrendipine binding assay. Particulars: competition with 3H-nitrendipine, plasma membrane from bovine cerebral cortices.

`CCN(CC)CC(=O)Nc1c(C)cccc1C` [lignocaine, reference compound]: the “effect on tachycardia elicited by electrical stimulation of the spinal cord” value with pithed rat (result in words) is listed as “no effect”.

`C[C@H]1[C@H](C)CC[C@]2(C(=O)O)CC[C@]3(C)C(=CC[C@@H]4[C@@]5(C)CC[C@H](O)C(C)(C)[C@@H]5CC[C@]43C)[C@H]12` [ursolic acid]: the heart rate decrease in the assay with cardiac function is recorded as 32%.

For the compound `O=C(NCCO[N+](=O)[O-])c1cccnc1` [nicorandil, reference compound], in the assay with pithed rat (result in words), the “effect on tachycardia elicited by electrical stimulation of the spinal cord” value is “no effect”.

As a reminder, the IC50 is the point on the concentration scale where inhibition reaches its midpoint. With `COC(=O)C1=C(C)NC(C)=C(C(=O)OC)C1c1ccccc1[N+](=O)[O-]` [Nifedipine, reference compound], the half-maximal inhibitory concentration (IC50) in assay [1] is 35.5 nM; in the assay with rat isolated aorta it was 5.13 nM. Also, in the assay on guinea-pig ileum, the Emax at 0.002 µM worked out at 74%.

For `COC(=O)C1=C(C)NC(C)=C(OC(C)=O)C1[C@]12CC[C@@H](C)[C@H](C)[C@H]1C1=CC[C@@H]3[C@@]4(C)CC[C@H](OC)C(C)(C)C4CC[C@@]3(C)[C@]1(C)CC2` (stereo partly shown) [Compound 4, Dihydropyridine-3,5-dicarboxylate Ursolic Acid Derivative], the figures for the IC50 (in assay [1]; in the assay on rat isolated aorta) were 0.347 nM and 0.0174 nM, respectively. Also, in the assay on pithed rat (inhibition of electrically induced tachycardia, cumulative intravenous doses), the ID50 was found to be 71620 nM. In the assay on pithed rat (result in words), the “calcium channel blocker selectivity in pithed rat assay” value is on record as “selective calcium channel blocker”. Besides, in assay [2], the “The affinity constant Ki” value was 3.1 × 10^−13 mol/1. Besides, the Response percentage ratio in the assay with guinea-pig ileum (3 mM calcium, response with blocker divided by response without) was 0.15 ± 0.009. In the assay with guinea-pig ileum, the Emax at 0.002 µM is 27%.
